Experimental data taken from ChEMBL document CHEMBL3860057, “Design and Synthesis of Potent Quinazolines as Selective β-Glucocerebrosidase Modulators” (J Med Chem, 2016).

Experiments:
[1] = target: T1, Lysosomal acid glucosylceramidase (Homo sapiens, UniProt P04062); assay: Inhibition of synthetic recombinant wild type GCase enzyme velaglucerase alfa (unknown origin) at pH 5.9 preincubated for 5 mins followed by addition of 4-Methylumbelliferyl beta-D-glucopyranoside as substrate measured after 30 mins by fluorescence analysis
T1 sequence (P04062 whole entry): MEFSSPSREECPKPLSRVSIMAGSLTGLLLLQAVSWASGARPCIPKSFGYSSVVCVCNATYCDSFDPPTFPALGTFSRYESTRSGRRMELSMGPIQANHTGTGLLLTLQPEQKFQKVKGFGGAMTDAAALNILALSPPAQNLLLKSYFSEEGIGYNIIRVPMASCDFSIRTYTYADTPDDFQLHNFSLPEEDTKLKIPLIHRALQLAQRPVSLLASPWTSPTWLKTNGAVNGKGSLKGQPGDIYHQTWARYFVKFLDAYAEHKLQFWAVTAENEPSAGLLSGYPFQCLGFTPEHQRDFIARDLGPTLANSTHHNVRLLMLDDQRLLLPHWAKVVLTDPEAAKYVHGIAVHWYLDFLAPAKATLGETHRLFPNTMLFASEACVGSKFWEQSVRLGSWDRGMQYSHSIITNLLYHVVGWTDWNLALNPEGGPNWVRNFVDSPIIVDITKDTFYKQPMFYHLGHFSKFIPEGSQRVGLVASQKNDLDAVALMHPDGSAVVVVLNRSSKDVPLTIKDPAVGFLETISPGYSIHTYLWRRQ

[2] = target: T2, Lysosomal acid glucosylceramidase (Homo sapiens) (UniProt P04062)
T2 sequence (whole entry): T1 sequence (P04062 whole entry)
Description: Binding affinity to synthetic recombinant wild type GCase enzyme velaglucerase alfa (unknown origin) assessed as thermal stabilization by measuring change in melting temperature at lower concentration at pH 5 for every 10 secs by Sypro Orange-dye based fluorescence thermal shift assay

SMILES | IC50 [1] [nM] | ΔTm [2] [°C]
C[C@H]1CC[C@H](Nc2nc(-c3cccnc3)nc3ccccc23)CC1 | 20 | 
c1ccc2c(c1)CC(Nc1nc(-c3ccsc3)nc3ccccc13)C2 |  | 11
